# Assays:
# [1] = test system: pollen beetles; test: B.2 unreplicated field test, control of pollen beetle in winter oilseed rape (vs lambda-cyhalothrin); assay type: in vivo, Meligethes; conditions: for % Control 1DAA: foliar
# Method: An unreplicated field test was carried out on Winter oilseed rape, (crop stage BBCH 55) and which was under attack by actively foraging pollen beetles (adult beetles: 2.32 beetle/flower cluster). The active ingredient pymetrozine ((E)-4,5-dihydro-6-methyl-4-(3-pyridylmethyleneamino)-1,2,4-triazin-3(2H)-one; formulated as Chess 50% WG) was tested at rates of 12.5, 50 and 200 g ai/ha and compared to the activity of lambda-cyhalothrin (formulated as Karate Zeon 10CS) at 5 g ai/ha. Foliar application of the compounds under test was effected using a conventional spray boom. The degree of pest infestation was assessed pre-spray (average of 2.3 adult pollen beetles per flower cluster in the check plot) and compared to that observed 1day after application.
# [2] = test system: pollen beetles; test: B.3 field trial, control of pollen beetle in oilseed rape, extremely high pest pressure (vs lambda cyhalothrin and thiacloprid); assay type: in vivo, Meligethes; conditions: foliar
# Method: A third field trial (randomized complete block) was carried out on oilseed rape, which had reached crop stage BBCH 55 (new growth with 30 to 60 cm height; flower buds, open flowers, some small seed pods formed) and which was under attack by actively foraging pollen beetles (adult beetles: 10 beetle/flower cluster). The active ingredient pymetrozine ((E)-4,5-dihydro-6-methyl-4-(3-pyridylmethyleneamino)-1,2,4-triazin-3(2H)-one; formulated as Plenum 50% WG) was tested at rates of 50, 100 and 150 g ai/ha and compared to the activity of lambda cyhalothrin (7.5 g ai/ha) and thiacloprid (72 g ai/ha). Foliar application of the compounds under test was effected using a conventional spray boom and a volume of 400 L/ha. The degree of pest control was assessed pre-spray, and compared to that observed 2 hours, 1, 3 and 5 days after application.
# [3] = test system: pyrethroid resistant Pollen Beetle; test: B.4 field trial, control of pyrethroid resistant pollen beetle in oilseed rape; assay type: in vivo, Meligethes
# Method: A further field trial (randomized complete block, 30 racemes per plot) was carried out on oilseed rape, which had reached crop stage BBCH 57-59 (individual flower buds—secondary inflorescence—visible but still closed) and which was under attack by actively foraging pollen beetles (adult beetles: average of 30 adult beetles/plot). The active ingredient pymetrozine ((E)-4,5-dihydro-6-methyl-4-(3-pyridylmethylene-amino)-1,2,4-triazin-3(2H)-one; formulated as Plenum 50% WG) was tested at rates of 50, 100 and 150 g ai/ha and compared to the activity of lambda cyhalothrin (7.5 g ai/ha) and thiacloprid (72 g ai/ha). Foliar application of the compounds under test was effected using a conventional spray boom and a volume of 500 L/ha. The degree of pest control was assessed pre-spray, and compared to that observed 1 and 3 days after application.
# [4] = test system: pyrethroid resistant Pollen Beetle; test: B.5 three field trials, control of pyrethroid resistant pollen beetle in oilseed rape; assay type: in vivo, Meligethes; conditions: foliar
# Method: Three further field trials (randomized complete block, 25 plants per plot) were carried out on oilseed rape, which had reached crop stage BBCH 57-63 and which was under attack by actively foraging pollen beetles (adult beetles: average of 27 adult beetles/plot). The active ingredient pymetrozine ((E)-4,5-dihydro-6-methyl-4-(3-pyridylmethylene-amino)-1,2,4-triazin-3(2H)-one; formulated as Plenum 50% WG) was tested at rates of 75, 100 and 150 g ai/ha and compared to the activity of lambda cyhalothrin (7.5 g ai/ha) and thiacloprid (72 g ai/ha). Foliar application of the compounds under test was effected using a conventional spray boom and a volume of 300 L/ha. The degree of pest control was assessed pre-spray, and compared to that observed 1, 4 and 7 days after application.
# [5] = test system: pollen beetles; test: B.1 field trial, control of pollen beetle in winter oilseed rape (vs Lavender oil and Quassan 30); assay type: in vivo, Meligethes; conditions: foliar
# Method: A randomized complete block field trial was carried out on winter oilseed rape, which had reached crop stage BBCH 55 (flower buds, open flowers, some small seed pods formed) and which was under attack by actively foraging pollen beetles (adult beetles: 1 beetle/flower cluster). The active ingredient pymetrozine ((E)-4,5-dihydro-6-methyl-4-(3-pyridylmethyleneamino)-1,2,4-triazin-3(2H)-one; formulated as Plenum 50% WG) was tested at rates of 50 and 150 g ai/ha and compared to the activity of Lavender oil (at rates of 1000 g ai/ha and 2500 g ai/ha) and Quassia amara extract (Quassan 30; applied at rates of 30, 90 and 270 g ai/ha). Foliar application of the compounds under test was effected using a conventional spray boom and a volume of 500 L/ha. The degree of pest control was assessed pre-spray, and compared to that observed 1, 3 and 5 days after application.
# [6] = test system: insects from the Coccinellidae family; conditions: Sechser et al. 2002 J. Pest Science 75:72-77; cited from earlier work
# [7] = test system: insects from the Carabidae family; conditions: Sechser et al. 2002 J. Pest Science 75:72-77; cited from earlier work
# [8] = test system: insects from the Staphylinidae family; conditions: Sechser et al. 2002 J. Pest Science 75:72-77; cited from earlier work
smiles,measurement,setting,value
CC1(C)[C@H](C(=O)O[C@H](C#N)c2cccc(Oc3ccccc3)c2)[C@@H]1/C=C(\Cl)C(F)(F)F (racemic) [Lambda cyhalothrin],% Control 1DAA,"[1]; 5 g ai/ha, 1DAA",100%
same,% Control,"[2]; 7.5 g ai/ha, 1 DAA",75%
same,% Control,"[2]; 7.5 g ai/ha, 3 DAA",92%
same,% Control,"[2]; 7.5 g ai/ha, 5 DAA",23%
same,% Control,"[2]; 7.5 g ai/ha, 2 hrs aa",63.4%
same,% Control,"[3]; 7.5 g ai/ha, foliar, 1 DAA",73%
same,% Control,"[3]; 7.5 g ai/ha, foliar, 3 DAA",60%
same,level of control (in words),[3]; recommended field rate (7.5 g ai/ha),low level of control
same,Mean % Control,"[4]; 7.5 g ai/ha, 1 DAA",33.0%
same,Mean % Control,"[4]; 7.5 g ai/ha, 4 DAA",20.0%
same,Mean % Control,"[4]; 7.5 g ai/ha, 7 DAA",18.1%
"CC1=NNC(=O)N(N=Cc2cccnc2)C1 [Pymetrozine, 4,5-dihydro-6-methyl-4-(3-pyridylmethyleneamino)-1,2,4-triazin-3(2H)-one]",Percentage Control,"[5]; 50 g ai/ha, 1 DAA",90%
same,Percentage Control,"[5]; 50 g ai/ha, 3 DAA",98%
same,Percentage Control,"[5]; 50 g ai/ha, 5DAA",99%
same,Percentage Control,"[5]; 150 g ai/ha, 1 DAA",86%
same,Percentage Control,"[5]; 150 g ai/ha, 3 DAA",92%
same,Percentage Control,"[5]; 150 g ai/ha, 5DAA",95%
same,% Control 1DAA,"[1]; 12.5 g ai/ha, 1DAA",90%
same,% Control 1DAA,"[1]; 50 g ai/ha, 1 DAA",98%
same,% Control 1DAA,"[1]; 200 g ai/ha, 1DAA",100%
same,control of Meligethes (in words),"[1]; at all rates (12.5, 50, 200 g ai/ha), 1DAA",excellent control
same,% Control,"[2]; 50 g ai/ha, 1 DAA",19%
same,% Control,"[2]; 50 g ai/ha, 3 DAA",44%
same,% Control,"[2]; 50 g ai/ha, 5DAA",0%
same,% Control,"[2]; 50 g ai/ha, 2 hrs aa",37.3%
same,% Control,"[2]; 100 g ai/ha, 1 DAA",61%
same,% Control,"[2]; 100 g ai/ha, 3 DAA",77%
same,% Control,"[2]; 100 g ai/ha, 5 DAA",0%
same,% Control,"[2]; 100 g ai/ha, 2 hrs aa",39.9%
same,% Control,"[2]; 150 g ai/ha, 1 DAA",61%
same,% Control,"[2]; 150 g ai/ha, 3 DAA",84%
same,% Control,"[2]; 150 g ai/ha, 5DAA",0%
same,% Control,"[2]; 150 g ai/ha, 2 hrs aa",42.5%
same,% Control,"[3]; 3DAA, rates 50, 100 and 150 g ai/ha",> 90%
same,% Control,"[3]; 50 g ai/ha, foliar, 1 DAA",60%
same,% Control,"[3]; 50 g ai/ha, foliar, 3 DAA",96%
same,% Control,"[3]; 100 g ai/ha, foliar, 1 DAA",62%
same,% Control,"[3]; 100 g ai/ha, foliar, 3 DAA",97%
same,% Control,"[3]; 150 g ai/ha, foliar, 1 DAA",78%
same,% Control,"[3]; 150 g ai/ha, foliar, 3 DAA",96%
same,Mean % Control,"[4]; 75 g ai/ha, 1 DAA",89.9%
same,Mean % Control,"[4]; 75 g ai/ha, 4 DAA",72.4%
same,Mean % Control,"[4]; 75 g ai/ha, 7 DAA",92.8%
same,Mean % Control,"[4]; 100 g ai/ha, 1 DAA",87.2%
same,Mean % Control,"[4]; 100 g ai/ha, 4 DAA",72.9%
same,Mean % Control,"[4]; 100 g ai/ha, 7 DAA",92.8%
same,Mean % Control,"[4]; 150 g ai/ha, 1 DAA",95.2%
same,Mean % Control,"[4]; 150 g ai/ha, 4 DAA",77.4%
same,Mean % Control,"[4]; 150 g ai/ha, 7 DAA",91.3%
same,effect on insects (in words),[6],no effect
same,effect on insects (in words),[7],no effect
same,effect on insects (in words),[8],no effect
N#C/N=C1\SCCN1Cc1ccc(Cl)nc1 [Thiacloprid],% Control,"[2]; 72 g ai/ha, 1 DAA",67%
same,% Control,"[2]; 72 g ai/ha, 3 DAA",92%
same,% Control,"[2]; 72 g ai/ha, 5 DAA",0%
same,% Control,"[2]; 72 g ai/ha, 2 hrs aa",39.9%
same,% Control,"[3]; 72 g ai/ha, foliar, 1 DAA",63%
same,% Control,"[3]; 72 g ai/ha, foliar, 3 DAA",94%
same,Mean % Control,"[4]; 72 g ai/ha, 1 DAA",74.7%
same,Mean % Control,"[4]; 72 g ai/ha, 4 DAA",92.5%
same,Mean % Control,"[4]; 72 g ai/ha, 7 DAA",78.3%

# From patent US8455487B2, “Methods of controlling insects” (Syngenta Participations AG, priority 2007, dated 2013)
